{
  "source": "patent US20030153551A1",
  "about": "“Method for treating ocular neovascular diseases” (priority 2002, published 2003)",
  "key": {"[1]": {"system": "endothelial cells of mature vessels", "assay": "Effect on mature retinal vessels of adult mice, lectin staining with image analysis", "format": "in vivo, Adult C57BL6J mice", "settings": "600 mg/kg by gavage once a day, 5 days", "procedure": "After 5 days of treatment, the mice are sacrificed, eyes are rapidly removed and frozen in optimum cutting temperature embedding compound (OCT; Miles Diagnostics, Elkhart, Ind.) or fixed in 10% phosphate-buffered formalin and embedded in paraffin. Adult C57BL6J mice are also treated by gavage with the drug or vehicle and after 5 days, they are sacrificed and their eyes are processed for frozen or paraffin sections."}, "[2]": {"system": "retinal vascular development", "assay": "Retinal vascular development in neonatal mice, fluorescein-dextran perfused retinal flat mounts", "format": "in vivo, newborn C57/BL6J mice", "settings": "daily subcutaneous 100 mg/kg", "description": "Litters of newborn C57/BL6J mice (neonatal mice) are divided into treatment and control groups which received daily subcutaneous injections of 100 mg/kg of the drug or vehicle, respectively. At 7 or 10 days of age, the mice are anesthetized with ether, and perfused with 1 ml of phosphate-buffered saline containing 50 mg/ml of fluorescein-labeled dextran (2×10^6 average mw, Sigma, St. Louis, Mo.) as described by Tobe et al., Evolution of Neovascularization in Mice with Overexpression of VEGF in Photoreceptors, Invest. Ophthalmol. Vis. Sci. 39, 180-188 (1998). The eyes are removed and fixed for 1 hour in 10% phosphate-buffered formalin. The cornea and lens are removed and the entire retina is carefully dissected from the eyecup. Radially cuts are made from the edge of the retina to the equator in all 4 quadrants, and the retina is flat-mounted in Aquamount with photoreceptors facing upward. […] Image-Pro™ Plus is used to measure the distance from the center of the optic nerve to the leading front of developing retinal vessels in each quadrant and the mean is used as a single experimental value."}, "[3]": {"system": "choroidal neovascularization", "assay": "Laser-induced choroidal neovascularization in mice, lectin staining with integrated area measurement", "format": "in vivo, C57BL/6J mice", "settings": "400 mg/kg/day orally by gavage", "description": "C57BL/6J mice are treated in accordance with the Association for Research in Vision and Ophthalmology resolution for the treatment of animals. […] J Path, in press. Briefly, 4 to 5 week old male C57BL/6J mice are anesthetized with ketamine hydrochloride (100 mg/kg body weight) and the pupils are dilated with 1% tropicamide. Three burns of krypton laser photocoagulation (100 μm spot size, 0.1 seconds duration, 150 mW) are delivered to each retina using the slit lamp delivery system of a Coherent Model 920 Photocoagulator and a hand held cover slide as a contact lens. Burns are performed in the 9, 12, and 3 o'clock positions of the posterior pole of the retina. Production of a bubble at the time of laser, which indicates rupture of Bruch's membrane, is an important factor in obtaining CNV, so only mice in which a bubble is produced for all three burns are included. […] After 14 days, the mice are killed with an overdose of pentobarbital sodium, and their eyes are rapidly removed and frozen in optimal cutting temperature embedding compound (OCT). […] Slides are rinsed with 0.05M TBS and incubated 2 hours at 37° C. with biotinylated lectin. […] After a 10 minute incubation in 0.05 M Tris buffer, pH 7.6, slides are developed in Histomark Red (Kirkegaard and Perry) to give a red reaction product, and mounted with Cytoseal (Stephens Scientific, Riverdale, N.J.). Some slides are counterstained with Contrast Blue (Kirkegaard and Perry).\nFor each lesion, area measurements are made for all sections on which some of the lesion appeared and added together to give the integrated area measurement. Values are averaged to give one experimental value per mouse. A 2-sample t-test for unequal variances is performed to compare the log mean integrated area between treatment and control mice."}, "[4]": {"system": "retinal neovascularization", "assay": "Oxygen-induced ischemic retinopathy in mice, lectin staining of retinal endothelial cells with image analysis", "format": "in vivo, C57/BL6J mice", "description": "Ophthalmol. Vis. […] Vehicle (1% DMSO) or vehicle containing various concentrations of the drug (volume=10 μl per gram body weight) is placed in the stomach by gavage.\nSome slides are counterstained with hematoxyln and all were mounted with Cytoseal."}},
  "data": [
    {"smiles": "CO[C@@H]1[C@H](N(C)C(=O)c2ccccc2)C[C@H]2O[C@]1(C)n1c3ccccc3c3c4c(c5c6ccccc6n2c5c31)C(=O)NC4", "note": "[NBS, N-benzoyl-staurosporine]", "values": [
      {"measurement": "total area of endothelial staining in the retina or appearance of retinal vessels compared to vehicle-treated mice", "setting": "[1]", "value": "no difference"},
      {"measurement": "toxicity to endothelial cells of mature vessels", "setting": "[1]", "value": "not toxic"},
      {"measurement": "difference in distance from the optic nerve to the vascular front between treated and control mice", "setting": "[2]; at 7 and 10 days of age", "value": "statistically significant"},
      {"measurement": "extent of retinal vessels toward the periphery", "setting": "[2]; at 7 days of age", "value": "only extend slightly more than halfway to the periphery"},
      {"measurement": "extent of superficial capillary bed", "setting": "[2]; at 10 days of age", "value": "has not yet reached the edge of the retina"},
      {"measurement": "integrated area of lectin staining per lesion", "setting": "[3]; 14 days after laser, vehicle 0.0695621±0.0073960 mm^2, p=0.004", "value": "0.009018±0.001754", "unit": "mm^2"},
      {"measurement": "appearance of overlying retinal vessels in eyes of treated mice", "setting": "[3]; two weeks after laser", "value": "appear normal"},
      {"measurement": "choroidal neovascularization at the site of each laser-induced rupture of Bruch's membrane", "setting": "[3]; two weeks after laser", "value": "very little if any choroidal neovascularization"},
      {"measurement": "endothelial cell staining on and in the retinas by image analysis versus vehicle-treated mice", "setting": "[4]; 60 mg/kg once a day", "value": "significantly less"},
      {"measurement": "clumps of neovascularization on the surface of the retina versus vehicle-treated control mice", "setting": "[4]; 60 mg/kg twice a day, gavage", "value": "less than clumps in the retina of the vehicle-treated control mice"},
      {"measurement": "clumps of neovascularization on the surface of the retina versus vehicle-treated control mice", "setting": "[4]; 300 mg/kg twice a day, gavage", "value": "less than clumps in the retina of the vehicle-treated control mice"},
      {"measurement": "endothelial cell staining on and in the retinas by image analysis versus vehicle-treated mice", "setting": "[4]; 600 mg/kg once a day", "value": "significantly less"},
      {"measurement": "endothelial cell staining on the surface and within the retina compared to vehicle-treated mice", "setting": "[4]; 600 mg/kg once a day for 5 days, gavage", "value": "dramatic decrease"}
    ]}
  ]
}
